“Also recorded” adds a separate entry of the source.
Experiments:
LacCer synthase = LacCer synthase activity in tissues of treated mice; format: in vivo
Procedure: (§1) Female athymic nude mice were injected subcutaneously with […] of Matrigel mixture, containing VEGF (4 μg/ml) and b-FGF (4 μg/ml). Two days later, D-PDMP (10 mg/kg) suspended in 5% Tween-80/0.85% NaCl and was injected intraperitoneally daily for ten days. Mice, injected with vehicle alone, served as control. Passaniti et al., 67 LAB. INVEST. 519-28 (1992). Next, Matrigel plugs were removed, fixed in 10% formalin/PBS, embedded in paraffin and sectioned. Sections were stained with trichrome-Masson stain and photographed. Tissues were also flash-frozen and the activity of LacCer synthase was measured.
The activity of LacCer synthase was measured using ^14C-UDP-Gal as donor and GlcCer as substrate as described previously. See Chatterjee, S., 311 METHODS ENZYMOL. 73-81 (2000).

HUVEC [1] = assay: Apoptosis in HUVEC (DAPI staining, cytochrome c release); format: cell-based, human; details: basal medium with 2% fetal bovine serum, data not shown
renal cancer = assay: Mice model of renal cancer; format: in vivo
HUVEC [2] = assay: In vitro angiogenesis/tube formation assay in HUVEC; format: cell-based, human; details: for Effect on VEGF-induced tube formation: pre-treatment with inhibitor; for Bypass of D-PDMP inhibition of VEGF-induced tube formation: co-incubated with VEGF after D-PDMP pre-treatment; for Induction of tube formation: VEGF 10 ng/ml
Procedure: HUVECs were grown on 24-well culture plates and then exposed to various agonists/antagonists. After stipulated time points, cells were trypsinized, washed in sterile PBS twice and then reconstituted in EGM™ containing 2% FBS. In vitro angiogenesis assay was performed using a commercially available kit from Chemicon International. In brief, 50 μl of ECMatrix™ were placed on 96-well plates and allowed to polymerize at 37° C. for 2 hr. […] Tubes formed were documented using phase contrast microscope (NIKON) at 10× magnification. Images were acquired using CCD camera connected to computer with online image acquiring software AxioVision software (ZEISS). For quantification of tube lengths, images were exported to NIH Image J Software (http://rsb.info.hih.gov/ij/download.html). Results are shown as the mean tube length±SD (in um) for three photographic fields per experiment/well for at least three experiments per condition.

nude mice = assay: In vivo angiogenesis, Matrigel plug assay in nude mice; details: Matrigel plug with VEGF/bFGF 4 μg/ml, D-PDMP 10 mg/kg IP daily for 10 days
Procedure: In vivo angiogenesis was measured by Matrigel plug assay in nude mice. Matrigel mixed with VEGF and bFGF (4 μg/ml each) with or without D-PDMP was injected subcutaneously into the abdomen of nude mice. Plugs were retrieved after 10 days with daily dose of D-PDMP (10 mg/kg Intraperitoneal). […] Approximately 10 fields were taken for each plug, and five plugs from each treated or control group were analyzed by Image Pro software. Results are expressed as percent micro vessel area means±SEM. *P<0.001 versus untreated controls (n=6).
as §1

HUVEC [3] = system: HUVEC
HAEC = assay: In vitro angiogenesis/tube formation assay in HAEC; format: cell-based, human
Procedure: HUVECs were grown on 24-well culture plates and then exposed to various agonists/antagonists. After stipulated time points, cells were trypsinized, washed in sterile PBS twice and then reconstituted in EGM™ containing 2% FBS. In vitro angiogenesis assay was performed using a commercially available kit from Chemicon International. In brief, 50 μl of ECMatrix™ were placed on 96-well plates and allowed to polymerize at 37° C. for 2 hr. Then, HUVEC/HAEC (5×10^3) were suspended in 200 μl of EGM containing 2% FBS and pretreated with inhibitors±VEGF/bFGF/LacCer/S1P for an hr at 37° C., then the cells were added on top of the polymerized ECMatrix™ and incubated at 37° C. in 5% CO2 atmosphere for 8-12 hrs. Tubes formed were documented using phase contrast microscope (NIKON) at 10× magnification. Images were acquired using CCD camera connected to computer with online image acquiring software AxioVision software (ZEISS). For quantification of tube lengths, images were exported to NIH Image J Software (http://rsb.info.hih.gov/ij/download.html). Results are shown as the mean tube length±SD (in um) for three photographic fields per experiment/well for at least three experiments per condition.

PECAM-1 = assay: Western immunoblot of PECAM-1 expression in HUVEC; format: cell-based, human
Procedure: (A) Western blot analysis of PECAM-1 expression in HUVECs that were pretreated with either LY294002 (75 μM), L-NAME (100 μM) or PDTC (25 μM) for 90 min, followed by incubation with VEGF (25 ng/ml) for 4 hrs. […] (C) HUVECs were pretreated with either LY294002 (75 μM), L-NAME (100 μM), PDTC (25 μM), PECAM-1 monoclonal antibody (4 μg/ml) or mouse IgG (4 μg/ml) for 90 min, followed by incubation with VEGF (25 ng/ml) for 4 hrs and then U937 (monocyte) TEM assays were performed as described below. *P<0.001 vs. vehicle control; **P<0.001 vs. […] Cells treated with agonists/antagonists were washed twice in PBS and lysed with mammalian protein extraction reagent (Pierce Biotechnology) supplemented with protease inhibitor cocktail (Roche Diagnostics GmbH). Protein content was determined using a Bradford dye binding assay kit from Bio-Rad Laboratories, Inc. (Richmond, Calif.) using BSA as standard. Twenty-five μg of cellular protein was resolved by 10% SDS-PAGE and then transferred to nitrocellulose membrane. After blocking (5% non-fat dry milk powder in Tris-buffered saline, pH 8.0 containing 0.05% Tween 20) for 1 hr at room temperature, membranes were incubated with appropriate primary antibodies. […] The x-ray films were then densitometrically scanned using a Molecular Dynamics Image Scanner and analyzed using Image Quant software.

U-937 cells = assay: Transendothelial migration (TEM) of U-937 cells across HUVEC; format: cell-based, human
Procedure: (A) Western blot analysis of PECAM-1 expression in HUVECs that were pretreated with either LY294002 (75 μM), L-NAME (100 μM) or PDTC (25 μM) for 90 min, followed by incubation with VEGF (25 ng/ml) for 4 hrs. […] (C) HUVECs were pretreated with either LY294002 (75 μM), L-NAME (100 μM), PDTC (25 μM), PECAM-1 monoclonal antibody (4 μg/ml) or mouse IgG (4 μg/ml) for 90 min, followed by incubation with VEGF (25 ng/ml) for 4 hrs and then U937 (monocyte) TEM assays were performed as described below. *P<0.001 vs. vehicle control; **P<0.001 vs. […] TEM assays were performed as previously described. Wei et al., 320 BIOCHEM. BIOPHYS. RES. COMMUN. 1228-35 (2004). Briefly, HUVECs (3×10^5/ml) were placed on 0.2% gelatin coated upper side of Costar® Transwell® inserts (12 mm diameter, 3.0 μm pore-size) (Corning Incorporated, Acton, Mass.) and allowed to reach confluence. Afterwards, the cells were incubated with 2% FBS plus growth factor free EGM for 6 hrs. Subsequently, 3×10^6/ml U-937 promonocytic cell line was added to the upper chamber of the insert and allowed to migrate for 10-12 hrs. At the end of incubation, the U-937 cells that migrated to the lower chamber were carefully aspirated and washed in PBS twice (1500 rpm, 10 min, 4° C.) and then counted using a Neubauer chamber.

[4] = LY294002 75 μM, PDTC 25 μM for 90 min, then VEGF 25 ng/ml 4 hrs

For `CCCCCCCCCC(=O)N[C@H](CN1CCOCC1)[C@H](O)c1ccccc1` [D-PDMP, D-threo-1-Phenyl-2-decanoylamino-3-morpholino-1-propanol], the “Decrease in the activity of LacCer synthase” value (LacCer synthase; D-PDMP 10 mg/kg IP 10 days, versus agonist treated mice) was 39%, the “Activity of LacCer synthase” value (LacCer synthase; D-PDMP treated animals, 10 mg/kg IP 10 days) was 0.200±0.015 nmol/mg protein and the “Effect on apoptosis, compound alone” value (HUVEC [1]) was “did not alter”. For the same compound, the Survival (renal cancer) was “markedly reduce”, the Tumor volume (renal cancer) was “markedly reduce” and the “Effect on LacCer-induced tube formation/angiogenesis” value (HUVEC [2]) was “blunted”. The “Effect on VEGF-induced tube formation” value (HUVEC [2]) was “inhibited; also recorded: blunted”, the “Effect on VEGF/bFGF-induced angiogenesis in vivo” value (nude mice; P<0.001) was “significantly inhibited; also recorded: mitigated” and the “Effect on VEGF/bFGF-induced angiogenesis in vivo” value (nude mice; P<0.001, listed as PDMP) was “mitigates”. For the same compound, the “Effect on VEGF-stimulated proliferation” value (HUVEC [3]; D-PDMP 10-20 μM) was “reduced this effect significantly”, the “Effect on cell proliferation, compound alone” value (HUVEC [3]; basal medium with 2% fetal bovine serum, data not shown) was “did not alter” and the “Effect on VEGF-induced tube formation” value (HAEC; HAEC, D-PDMP 20 μM) was “inhibited”. The “Effect on bFGF-induced tube formation” value (HAEC; HAEC, D-PDMP 20 μM) was “inhibited” and the “Effect on VEGF/B-FGF-induced angiogenesis” value (HAEC; human arterial endothelial cells) was “mitigated”.
`CCCCCCCCCCCCC/C=C/[C@@H](O)[C@H](CO)N(C)C` [DMS, dimethyl sphingosine] was tested, and the “Effect on S1P-induced tube formation” value (HUVEC [2]) was “inhibited” and the “Effect on VEGF-induced tube formation” value (HUVEC [2]) was “inhibited; also recorded: abrogated”.
`S=C(S)N1CCCC1` [PDTC, 1-pyrrolodinecarbodithioicacid] was tested, and the “Effect on VEGF-induced PECAM-1 expression” value (PECAM-1; [4]) was “blunted”, the “Effect on VEGF-induced tube formation” value (HUVEC [2]) was “blunted” and the “Effect on VEGF-induced transendothelial migration (TEM) of U-937 cells” value (U-937 cells; [4]) was “blunted”.
`CCCCCCCCCCCCC/C=C/[C@@H](O)[C@@H](N)COP(=O)(O)O` [S1P, sphingosine-1-phosphate] was tested, and the “Bypass of DMS inhibition of VEGF-induced tube formation” value (HUVEC [2]) was “not” and the “Bypass of D-PDMP inhibition of VEGF-induced tube formation” value (HUVEC [2]) was “not”.
For `Cc1ccc(C(=O)Nc2ccc(S(=O)(=O)O)c3cc(S(=O)(=O)O)cc(S(=O)(=O)O)c23)cc1NC(=O)c1cccc(NC(=O)Nc2cccc(C(=O)Nc3cc(C(=O)Nc4ccc(S(=O)(=O)O)c5cc(S(=O)(=O)O)cc(S(=O)(=O)O)c45)ccc3C)c2)c1` [suramin], the “Effect on LacCer-induced tube formation/angiogenesis” value (HUVEC [2]) was “not”, the “Effect on S1P-induced tube formation” value (HUVEC [2]) was “inhibited” and the “Effect on VEGF-induced tube formation” value (HUVEC [2]) was “inhibited”. The “Effect on VEGF-induced tube formation” value (HUVEC [2]; listed as surmain) was “mitigated”.
With Lactosylceramide [LacCer] the “Bypass of DMS inhibition of VEGF-induced tube formation” value (HUVEC [2]) was “bypassed; also recorded: by-passed”, the “Bypass of suramin inhibition of S1P-induced angiogenesis” value (HUVEC [2]) was “by passed” and the “Bypass of suramin inhibition of VEGF-induced tube formation” value (HUVEC [2]) was “bypassed”. For the same compound, the “Induction of tube formation” value (HUVEC [2]) was “induced tube formation”, the “Bypass of D-PDMP inhibition of VEGF-induced tube formation” value (HUVEC [2]) was “bypassed the inhibitory effect” and the “Reversal of D-PDMP inhibition of VEGF-induced tube formation” value (HAEC; HAEC, LacCer 2.5 μM) was “reversed”. The “Reversal of D-PDMP inhibition of bFGF-induced tube formation” value (HAEC; HAEC, LacCer 2.5 μM) was “reversed”.
VEGF was tested, and the “Induction of PECAM-1 expression” value (PECAM-1; VEGF 25 ng/ml 4 hrs) was “induced marked expression”, the “Induction of tube formation” value (HUVEC [2]) was “marked tube formation; also recorded: induced tube formation; also recorded: induced marked” and the “Induction of transendothelial migration (TEM) of U-937 cells” value (U-937 cells; VEGF 25 ng/ml 4 hrs) was “induced marked”. For the same compound, the Stimulation of proliferation (HUVEC [3]) was “stimulated proliferation” and the “Induction of tube formation” value (HAEC; HAEC) was “induced marked tube formation; also recorded: markedly induced”.
For “bFGF: Human recombinant basic fibroblast growth factor”, the “Induction of tube formation” value (HAEC; HAEC) was “induced marked tube formation”.

Source: patent US9134315B2, “Use of the lactosylceramide synthase isoform B1,4GalT-V as a biomarker for cancer” (The Johns Hopkins University, priority 2010, dated 2015)
